# According to ChEMBL document CHEMBL4014274, “Oligothiophene compounds inhibit the membrane fusion between H5N1 avian influenza virus and the endosome of host cell” (Eur J Med Chem, 2017):
# Legend:
# [1] = Inhibition of Influenza A virus (A/Thailand/Kan353/2004(H5N1)) hemagglutinin expressed in human 293T cells coexpressing NA assessed as reduction in HA mediated viral membrane fusion with MDCK cells pretreated for 30 mins with virus followed by infection in MDCK cells measured after 48 hrs by luciferase reporter gene assay; assay type: cell-based
# [2] = Cytotoxicity against MDCK cells after 2 days by MTT assay; assay type: cell-based, Canis lupus familiaris; conditions: dog
# [3] = Inhibition of Influenza A virus (A/Puerto Rico/8/34(H1N1)) neuraminidase activity infected in MDCK cells assessed as reduction in progeny production using 2-(4-Methylumbelliferyl)-a-D-N-acetylneuraminic acid sodium salt as substrate pretreated for 1 hr with virus followed by 1 hr infection in MDCK cells measured after 48 hrs by fluorescence assay; assay type: cell-based, Influenza A virus (A/Puerto Rico/8/1934(H1N1))
# [4] = system: Influenza A virus (A/Thailand/Kan353/2004(H5N1)); assay: Potency index, ratio of CL-385319 IC50 to compound IC50 for inhibition of Influenza A virus (A/Thailand/Kan353/2004(H5N1)) hemagglutinin expressed in human 293T cells coexpressing NA assessed as reduction in HA mediated viral membrane fusion with MDCK cells; assay type: cell-based
# [5] = Influenza A virus, read-out: IC50
Structure (SMILES),IC50 [1],"IC50 [1, 5] [µM]",CC50 at 48 h [2] [µM],other results
O=C(NCCCc1ccc(-c2ccc(-c3cccs3)s2)s1)c1cc(F)cc(C(F)(F)F)c1,Not Active,,,
O=C(NCCCc1cccs1)c1cc(F)cc(C(F)(F)F)c1,,7.24,40.2,
BrCCCCc1ccc(CCCCBr)s1,Not Active,,,
NCCCc1ccc(-c2ccc(-c3ccc(-c4cccs4)s3)s2)s1,,0.171,> 200,IC50 [3]: 0.768 µM
NCCCc1ccc(-c2ccc(-c3ccc(CCCN)s3)s2)s1,,4.15,> 200,
BrCCCc1ccc(-c2ccc(-c3cccs3)s2)s1,,12.5,35.3,
O=C(NCCCCc1ccc(-c2ccc(CCCCNC(=O)c3cc(F)cc(C(F)(F)F)c3)s2)s1)c1cc(F)cc(C(F)(F)F)c1,Not Active,,,
NCCCc1ccc(-c2ccc(-c3cccs3)s2)s1,,2.88,18.9,IC50 [3]: 1.12 µM
BrCCCc1ccc(-c2ccc(-c3ccc(-c4cccs4)s3)s2)s1,,74.1,> 200,
NCCCCc1ccc(-c2ccc(CCCCN)s2)s1,,0.0819,26.5,
NCCCCc1ccc(-c2ccc(-c3ccc(-c4cccs4)s3)s2)s1,Not Active,,,
O=C(NCCc1cccs1)c1cc(F)cc(C(F)(F)F)c1,,0.22,,
BrCCCCc1ccc(-c2ccc(-c3cccs3)s2)s1,,11.4,23.8,
[N-]=[N+]=NCCCCc1ccc(-c2ccc(-c3ccc(-c4ccc(CCCCN=[N+]=[N-])s4)s3)s2)s1,Not Active,,,
O=C(NCCCCc1ccc(-c2cccs2)s1)c1cc(F)cc(C(F)(F)F)c1,,19.8,27.4,
NCCCc1ccc(-c2ccc(CCCN)s2)s1,Not Active,,,
O=C(NCCCCc1cccs1)c1cc(F)cc(C(F)(F)F)c1,,4.73,43.5,
[N-]=[N+]=NCCCc1ccc(-c2ccc(-c3ccc(-c4cccs4)s3)s2)s1,,46.1,> 100,
NCCCCc1ccc(-c2ccc(-c3ccc(-c4ccc(CCCCN)s4)s3)s2)s1,Not Active,,,
NCCCCc1ccc(-c2ccc(-c3cccs3)s2)s1,,0.029,13.3,Ratio IC50 [4]: 1000; IC50 [3]: 1.24 µM
O=C(NCCCc1ccc(-c2ccc(CCCNC(=O)c3cc(O)cc(O)c3)s2)s1)c1cc(O)cc(O)c1,Not Active,,,

Structure (SMILES),IC50 [1],"IC50 [1, 5] [µM]",CC50 at 48 h [2] [µM],other results
[N-]=[N+]=NCCCc1ccc(-c2ccc(-c3cccs3)s2)s1,,23,> 200,
O=C(NCCCc1ccc(-c2ccc(CCCNC(=O)c3ccccc3Cl)s2)s1)c1ccccc1Cl,Not Active,,,
NCCCCc1ccc(-c2ccc(-c3ccc(CCCCN)s3)s2)s1,,0.037,13,IC50 [3]: 3.29 µM
BrCCCc1ccc(-c2ccc(-c3ccc(CCCBr)s3)s2)s1,,6.64,> 200,
O=C(NCC(c1cccs1)N1CCCC1)c1cc(F)cc(C(F)(F)F)c1 (stereo not drawn),,6.41,239,
O=C(NCCCCc1ccc(-c2ccc(-c3ccc(CCCCNC(=O)c4cc(F)cc(C(F)(F)F)c4)s3)s2)s1)c1cc(F)cc(C(F)(F)F)c1,Not Active,,,
BrCCCc1ccc(-c2ccc(CCCBr)s2)s1,Not Active,,,
O=C(NCCCc1ccc(-c2cccs2)s1)c1cc(F)cc(C(F)(F)F)c1,,42.1,46.7,
O=C(NCCCCc1ccc(CCCCNC(=O)c2cc(F)cc(C(F)(F)F)c2)s1)c1cc(F)cc(C(F)(F)F)c1,Not Active,,,
BrCCCCc1ccc(-c2ccc(-c3ccc(CCCCBr)s3)s2)s1,,0.696,> 200,
O=C(NCCCc1ccc(-c2ccc(-c3ccc(CCCNC(=O)c4cc(F)cc(C(F)(F)F)c4)s3)s2)s1)c1cc(F)cc(C(F)(F)F)c1,Not Active,,,
O=C(NCCCCc1ccc(-c2ccc(-c3cccs3)s2)s1)c1cc(F)cc(C(F)(F)F)c1,Not Active,,,
[N-]=[N+]=NCCCCc1ccc(-c2ccc(-c3ccc(-c4cccs4)s3)s2)s1,Not Active,,,
BrCCCCc1ccc(-c2ccc(-c3ccc(-c4cccs4)s3)s2)s1,Not Active,,,
NCCCCc1ccc(-c2cccs2)s1,Not Active,,,
O=C(NCCCc1ccc(-c2ccc(CCCNC(=O)c3cc(F)cc(C(F)(F)F)c3)s2)s1)c1cc(F)cc(C(F)(F)F)c1,Not Active,,,
NCCCCc1ccc(CCCCN)s1,Not Active,,,
[N-]=[N+]=NCCCCc1ccc(-c2ccc(-c3cccs3)s2)s1,,11.1,> 200,
O=C(NCCN1CCCCC1)c1cc(F)cc(C(F)(F)F)c1,,10.6,1370,IC50 [3]: 72 µM
BrCCCCc1ccc(-c2ccc(-c3ccc(-c4ccc(CCCCBr)s4)s3)s2)s1,Not Active,,,
[N-]=[N+]=NCCCCc1ccc(-c2ccc(-c3ccc(CCCCN=[N+]=[N-])s3)s2)s1,Not Active,,,
